According to patent US5436254A, “Carbostyril derivatives” (Otsuka Pharmaceutical Company, Ltd., priority 1989, dated 1995):

Target: V1 receptor (Rattus norvegicus, UniProt P30560)
Assay: biochemical
Format: binding
Procedure: Experiment 1: V1 receptor binding assay
Using rat liver plasma membrane preparations prepared according to Ichihara's method [cf: Akira Ichihara, J. Bio. Chem., 258 9283 (1983)], the plasma membrane (50000 dpm, 2×10^-10 M) of [H]^3 -Arg-vasopressin and a test compound (100 ng, 10^-7 -10^-4 M) are incubated at 37° C. for 10 minutes in 100 mM Tris-HCl buffer pH: 8.0 (250 μl) containing 5 mM MgCl2, 1 mM EDTA and 0.1% BSA. After incubation, the mixture is filtered three times using the glass filter (GF/F) so as to separate the membrane preparation combining with vasopressin and then washed with the buffer (5 ml). This glass filter is taken out and mixed with liquid scintillation cocktail. The amount of [H]^3 -vasopressin combining with the membrane is measured by liquid scintillation counter and the rate of the inhibitory effect of the test compound is estimated according to the following equation. [formula] C^1 : The amount of [H]^3 -vasopressin combining with the membrane in the presence of the test compound (known amount).
C^0 : The amount of [H]^3 -vasopressin combining with the membrane in the absence of the test compound.
B^1 : The amount of [H]^3 -vasopressin combining with the membrane in the presence of the excess amount of vasopressin (10^-6 M).

V1 receptor, sequence (P30560 whole entry): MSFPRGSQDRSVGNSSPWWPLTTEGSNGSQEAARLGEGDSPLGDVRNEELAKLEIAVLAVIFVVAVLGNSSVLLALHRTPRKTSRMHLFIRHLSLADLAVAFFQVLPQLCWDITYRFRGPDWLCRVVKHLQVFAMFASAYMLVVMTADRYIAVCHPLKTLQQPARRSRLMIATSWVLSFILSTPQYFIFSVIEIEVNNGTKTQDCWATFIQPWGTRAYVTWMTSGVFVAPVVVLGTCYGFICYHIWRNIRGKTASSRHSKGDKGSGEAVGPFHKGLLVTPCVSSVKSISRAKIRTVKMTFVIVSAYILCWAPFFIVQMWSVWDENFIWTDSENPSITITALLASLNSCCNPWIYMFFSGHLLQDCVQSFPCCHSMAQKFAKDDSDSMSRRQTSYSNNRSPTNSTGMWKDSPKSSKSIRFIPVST

Compound | IC50
NC(=O)OCCCCOc1ccc(C(=O)N2CCC(N3C(=O)CCc4ccccc43)CC2)cc1 [Example 38, 1-{1-[4-(4-Carbamoyloxybutoxy)benzoyl]-4-piperidinyl}-3,4-dihydrocarbostyril] | 270 nM
CC(=O)OCCCCCOc1ccc(C(=O)N2CCC(N3C(=O)CCc4ccccc43)CC2)cc1 [Example 39, 1-{1-[4-(5-Acetoxypentyloxy)benzoyl]-4-piperidinyl}-3,4-dihydrocarbostyril] | 150 nM
C=CCOc1ccc(C(=O)N2CCC(N3C(=O)CCc4ccccc43)CC2)cc1 [Example 44, 1-[1-(4-Allyloxybenzoyl)-4-piperidinyl]-3,4-dihydrocarbostyril] | 300 nM
O=C(c1ccc(Oc2ccccc2)cc1)N1CCC(N2C(=O)CCc3ccccc32)CC1 [Example 45, 1-[1-(4-Phenyloxybenzoyl)-4-piperidinyl]-3,4-dihydrocarbostyril] | 200 nM
CNc1ccc(C(=O)N2CCC(N3C(=O)CCc4ccccc43)CC2)c(OC)c1 [Example 48, 1-[1-(2-Methoxy-4-methylaminobenzoyl)-4-piperidinyl]-3,4-dihydrocarbostyril] | 400 nM
COc1cc(N(C)C)ccc1C(=O)N1CCC(N2C(=O)CCc3ccccc32)CC1 [Example 49, 1-[1-(2-Methoxy-4-dimethylaminobenzoyl)-4-piperidinyl]-3,4-dihydrocarbostyril] | 200 nM
CN(C)c1ccc(C(=O)N2CCC(N3C(=O)CCc4ccccc43)CC2)c(N(C)C)c1 [Example 50, 1-{1-[2,4-Bis(N,N-dimethylamino)benzoyl]-4-piperidinyl}-3,4-dihydrocarbostyril] | 400 nM
COc1ccc(C(=O)N2CCC(N3C(=O)CCc4ccccc43)CC2)c(N2CCOC2=O)c1 [Example 51, 1-{1-[2-(2-Oxooxazolydine-3-yl)-4-methoxybenzoyl]-4-piperidinyl}-3,4-dihydrocarbostyril] | 490 nM
CCOc1ccc(C(=O)N2CCC(N3C(=O)CCc4ccccc43)CC2)c(OC)c1 [Example 52, 1-[1-(2-Methoxy-4-ethoxybenzoyl)-4-piperidinyl]-3,4-dihydrocarbostyril] | 80 nM
COc1cc(SC)ccc1C(=O)N1CCC(N2C(=O)CCc3ccccc32)CC1 [Example 53, 1-[1-(2-Methoxy-4-methylthiobenzoyl)-4-piperidinyl]-3,4-dihydrocarbostyril] | 80 nM
COc1cc(Cl)ccc1C(=O)N1CCC(N2C(=O)CCc3ccccc32)CC1 [Example 54, 1-[1-(2-Methoxy-4-chlorobenzoyl)-4-piperidinyl]-3,4-dihydrocarbostyril] | 270 nM
COc1ccc(C(=O)N2CCC(N3C(=O)CCc4ccccc43)CC2)c(N(C)C)c1 [Example 55, 1-[1-(2-Dimethylamino-4-methoxybenzoyl)-4-piperidinyl]-3,4-dihydrocarbostyril] | 200 nM
CCNc1cc(OC)ccc1C(=O)N1CCC(N2C(=O)CCc3ccccc32)CC1 [Example 56, 1-[1-(2-Ethylamino-4-methoxybenzoyl)-4-piperidinyl]-3,4-dihydrocarbostyril] | 330 nM
CCCNc1cc(OC)ccc1C(=O)N1CCC(N2C(=O)CCc3ccccc32)CC1 [Example 57, 1-[1-(2-Propylamino-4-methoxybenzoyl)-4-piperidinyl]-3,4-dihydrocarbostyril] | 270 nM
CCN(C)c1cc(OC)ccc1C(=O)N1CCC(N2C(=O)CCc3ccccc32)CC1 [Example 58, 1-{1-[2-(N-Methyl-N-ethylamino)-4-methoxybenzoyl]-4-piperidinyl}-3,4-dihydrocarbostyril] | 450 nM
CCOc1cc(OC)ccc1C(=O)N1CCC(N2C(=O)CCc3ccccc32)CC1 [Example 59, 1-[1-(2-Ethoxy-4-methoxybenzoyl)-4-piperidinyl]-3,4-dihydrocarbostyril] | 200 nM

Compound | IC50
COc1ccc(C(=O)N2CCC(N3C(=O)CCc4ccccc43)CC2)c(O)c1 [Example 60, 1-[1-(2-Hydroxy-4-methoxybenzoyl)-4-piperidinyl]-3,4-dihydrocarbostyril] | 200 nM
COc1ccc(C(=O)N2CCC(N3C(=O)CCc4ccccc43)CC2)c(OC(C)=O)c1 [Example 61, 1-[1-(2-Acetoxy-4-methoxybenzoyl)-4-piperidinyl]-3,4-dihydrocarbostyril] | 300 nM
C=CCOc1cc(OC)ccc1C(=O)N1CCC(N2C(=O)CCc3ccccc32)CC1 [Example 62, 1-[1-(2-Allyloxy-4-methoxybenzoyl)-4-piperidinyl]-3,4-dihydrocarbostyril] | 150 nM
COc1ccc(C(=O)N2CCC(N3C(=O)CCc4ccccc43)CC2)c(OCCCO)c1 [Example 63, 1-{1-[2-(3-Hydroxypropoxy)-4-methoxybenzoyl]-piperidinyl}-3,4-dihydrocarbostyril] | 270 nM
COc1ccc(C(=O)N2CCC(N3C(=O)CCc4ccccc43)CC2)c(OCCCOC(C)=O)c1 [Example 64, 1-{1-[2-(3-Acetoxypropoxy)-4-methoxybenzoyl]-piperidinyl}-3,4-dihydrocarbostyril] | 460 nM
COc1ccc(C(=O)N2CCC(N3C(=O)CCc4ccccc43)CC2)c(OCCCOC(N)=O)c1 [Example 65, 1-{1-[2-(3-Carbamoyloxypropoxy)-4-methoxybenzoyl]-4-piperidinyl}-3,4-dihydrocarbostyril] | 270 nM
COCCCOc1cc(OC)ccc1C(=O)N1CCC(N2C(=O)CCc3ccccc32)CC1 [Example 66, 1-{1-[2-(3-Methoxypropoxy)-4-methoxybenzoyl]-piperidinyl}-3,4-dihydrocarbostyril] | 410 nM
COc1ccc(C(=O)N2CCC(N3C(=O)CCc4ccccc43)CC2)c(OCCCC(N)=O)c1 [Example 67, 1-{1-[2-(3-Carbamoylpropoxy)-4-methoxybenzoyl]-4-piperidinyl}-3,4-dihydrocarbostyril] | 470 nM
COc1ccc(C(=O)N2CCC(N3C(=O)CCc4ccccc43)CC2)c(OCCO)c1 [Example 68, 1-{1-[2-(2-Hydroxyethoxy)-4-methoxybenzoyl]-4-piperidinyl}-3,4-dihydrocarbostyril] | 360 nM
COc1ccc(C(=O)N2CCC(N3C(=O)CCc4ccccc43)CC2)c(OCCOC(C)=O)c1 [Example 69, 1-{1-[2-(2-Acetoxyethoxy)-4-methoxybenzoyl]-4-piperidinyl}-3,4-dihydrocarbostyril] | 420 nM
COCCOc1cc(OC)ccc1C(=O)N1CCC(N2C(=O)CCc3ccccc32)CC1 [Example 70, 1-{1-[2-(2-Methoxyethoxy)-4-methoxybenzoyl]-4-piperidinyl}-3,4-dihydrocarbostyril] | 320 nM
O=C(c1ccccc1)c1ccc(C(=O)N2CCC(N3C(=O)CCc4ccccc43)CC2)cc1 [Example 72, 1-[1-(4-Benzoylbenzoyl)-4-piperidinyl]-3,4-dihydrocarbostyril] | 480 nM
CCSc1ccc(C(=O)N2CCC(N3C(=O)CCc4ccccc43)CC2)cc1 [Example 74, 1-[1-(4-Ethylthiobenzoyl)-4-piperidinyl]-3,4-dihydrocarbostyril] | 180 nM
Cc1ccc(C(=O)N2CCC(N3C(=O)CCc4ccccc43)CC2)cc1C [Example 78, 1-[1-(3,4-Dimethylbenzoyl)-4-piperidinyl]-3,4-dihydrocarbostyril] | 400 nM
COc1ccc(C(=O)N2CCC(N3C(=O)CCc4cc(F)ccc43)CC2)c(OC)c1 [Example 79, 6-Fluoro-1-[1-(2,4-dimethoxybenzoyl)-4-piperidinyl]-3,4-dihydrocarbostyril] | 500 nM
